Assay [1] concerns the target GDP-bound NRAS wild-type protein (Homo sapiens, UniProt P01111). Nature of the assay: Binding to NRAS by surface plasmon resonance (SPR), Single Cycle Kinetics.
For assay [2], the target named is GDP-bound HRAS wild-type protein (Homo sapiens, UniProt P01112). Nature of the assay: Binding to HRAS by surface plasmon resonance (SPR), Single Cycle Kinetics.
Setting [3] is: SPR, GDP-bound NRAS wild-type vs GDP-bound KRAS wild-type.
[4] abbreviates: SPR, GDP-bound HRAS wild-type vs GDP-bound KRAS wild-type.
Where [5] appears, read: KD ratio, GDP-bound NRAS wild-type vs GDP-bound KRAS wild-type, SPR.
The mark [6] stands for this setting: KD ratio, GDP-bound HRAS wild-type vs GDP-bound KRAS wild-type, SPR.

Where a SMILES comes first, the peptide text is derived from it. Bridges are numbered along the chain shown (N, C = ends). [ ]: non-standard residue; d: D form. The star is where a group is joined. hPhe(3,5-F2-4-CF3) = N[C@@H](CCc1cc(F)c(C(F)(F)F)c(F)c1)C(=O)O; hPhe(3-Cl-4-CF3) = N[C@@H](CCc1ccc(C(F)(F)F)c(Cl)c1)C(=O)O; NPrPhe(4-CF3) = CCCN[C@@H](Cc1ccc(C(F)(F)F)cc1)C(=O)O; NMeGly(cPent) = CN[C@H](C(=O)O)C1CCCC1; Pro(4,4-F2) = O=C(O)[C@@H]1CC(F)(F)CN1; NMeD = CN[C@@H](CC(=O)O)C(=O)O; NMeL = CN[C@@H](CC(C)C)C(=O)O; NMeNva = CCC[C@H](NC)C(=O)O; αMeS = C[C@](N)(CO)C(=O)O; Morpholide = C1CN(*)CCO1; NMeA = CN[C@@H](C)C(=O)O; Ac5c = NC1(C(=O)O)CCCC1; Aze = O=C(O)[C@@H]1CCN1; Sar = CNCC(=O)O

The values below come from patent US20250230193A1, “CYCLIC COMPOUND HAVING SELECTIVE KRAS INHIBITORY EFFECT ON HRAS AND NRAS” (CHUGAI SEIYAKU KABUSHIKI KAISHA, priority 2022, published 2025).

Chain of GDP-bound HRAS wild-type protein (P01112 whole entry): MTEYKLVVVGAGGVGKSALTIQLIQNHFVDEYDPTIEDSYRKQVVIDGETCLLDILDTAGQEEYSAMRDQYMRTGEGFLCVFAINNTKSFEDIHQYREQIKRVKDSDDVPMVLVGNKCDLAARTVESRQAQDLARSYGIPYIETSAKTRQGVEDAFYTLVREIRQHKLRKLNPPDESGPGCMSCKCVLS
Chain of GDP-bound NRAS wild-type protein (P01111 whole entry): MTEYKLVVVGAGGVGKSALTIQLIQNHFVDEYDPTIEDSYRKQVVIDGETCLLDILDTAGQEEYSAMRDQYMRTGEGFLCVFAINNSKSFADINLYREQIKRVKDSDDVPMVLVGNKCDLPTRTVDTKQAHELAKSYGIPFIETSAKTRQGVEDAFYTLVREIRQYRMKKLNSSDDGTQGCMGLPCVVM

For `CCO[C@@H]1C[C@H]2C(=O)NC3(CCC3)C(=O)N(C)[C@@H](C(CC)CC)C(=O)N(C)[C@H](C(=O)N3CCCC3)CC(=O)N(C)[C@H]3CCC/C=C/c4ccc(cc4)C[C@@H](C(=O)N(C)CC(=O)N[C@@H](CCc4cc(F)c(C(F)(F)F)c(F)c4)C(=O)N2C1)N1CC/C=C\C[C@@H](C1=O)N(C)C(=O)CN(C1CC1)C(=O)[C@H]([C@@H](C)CC)NC3=O` [PP2957], the “NRAS/KRAS (ratio of KD value with respect to GDP-bound NRAS wild-type protein to KD value with respect to KRAS)” value in assay [1] (KD ratio NRAS/KRAS, class symbols) is reported as “AA (a compound having 20 or more is denoted as AA)”. The “HRAS/KRAS (ratio of KD value with respect to GDP-bound HRAS wild-type protein to KD value with respect to KRAS)” value in assay [2] (KD ratio HRAS/KRAS, class symbols) was “A (a compound having 10 or more and less than 20 is denoted as A)”.
Consider `CCO[C@@H]1C[C@H]2C(=O)NC3(CC(C)(C)C3)C(=O)N(C)[C@@H](C(CC)CC)C(=O)N(C)[C@H](C(=O)N(C)C)CC(=O)N(C)[C@@H](COC)C(=O)N[C@@H]([C@@H](C)CC)C(=O)N(C)CC(=O)N(C)[C@H]3C/C=C\CCN(C3=O)[C@@H](CC3CCC(F)(F)CC3)C(=O)N(C)CC(=O)N[C@@H](CCc3ccc(C(F)(F)F)c(Cl)c3)C(=O)N2C1` [PP2444], for which the “NRAS/KRAS (ratio of KD value with respect to NRAS to KD value with respect to KRAS)” value in assay [1] (setting [3]) is “A (a compound having 10 or more and less than 20 is denoted as A)”. Also, the “HRAS/KRAS (ratio of KD value with respect to HRAS to KD value with respect to KRAS)” value in assay [2] (setting [4]) was “A (a compound having 10 or more and less than 20 is denoted as A)”.
As for `CCCN1C(=O)[C@@H]2CCN2C(=O)CN(C)C(=O)[C@H]([C@@H](C)CC)NC(=O)[C@H](CC(C)C)N(C)C(=O)C[C@@H](C(=O)N2CCOCC2)N(C)C(=O)[C@H](C2CCCC2)N(C)C(=O)[C@](C)(COC)NC(=O)[C@@H]2CCCN2C(=O)[C@H](CCc2cc(F)c(C(F)(F)F)c(F)c2)NC(=O)CN(C)C(=O)[C@@H]1Cc1ccc(C(F)(F)F)cc1` [PP0798] ([NMeL]I[Sar][Aze][NPrPhe(4-CF3)][Sar][hPhe(3,5-F2-4-CF3)]P[αMeS](Me)[NMeGly(cPent)][NMeD]-Morpholide; lactam N-11), the “NRAS/KRAS (ratio of KD value with respect to GDP-bound NRAS wild-type protein to KD value with respect to KRAS)” value in assay [1] (KD ratio NRAS/KRAS, SPR) is “C (A compound having a KD ratio of 0.1 or more and less than 3 is denoted as C)”. Besides, the “HRAS/KRAS (ratio of KD value with respect to GDP-bound HRAS wild-type protein to KD value with respect to KRAS)” value in assay [2] (KD ratio HRAS/KRAS, SPR) was “B (a compound having 3 or more and less than 10 is denoted as B)”.
With `CCCOC[C@H]1C(=O)N[C@@H]([C@@H](C)CC)C(=O)N(C)CC(=O)N(C)[C@H]2C/C=C\CCN(C2=O)[C@@H](Cc2ccc(C)cc2)C(=O)N(C)CC(=O)N[C@@H](CCc2ccc(C(F)(F)F)c(Cl)c2)C(=O)N2C[C@H](CC)C[C@H]2C(=O)NC2(CC(C)(C)C2)C(=O)N(C)[C@@H](C2CCCC2)C(=O)N(C)[C@H](C(=O)N(C)C)CC(=O)N1C` [PP2235], the “NRAS/KRAS (ratio of KD value with respect to NRAS to KD value with respect to KRAS)” value in assay [1] (setting [3]) was “A (a compound having 10 or more and less than 20 is denoted as A)”. Besides, in assay [2] (setting [4]), the “HRAS/KRAS (ratio of KD value with respect to HRAS to KD value with respect to KRAS)” value is “A (a compound having 10 or more and less than 20 is denoted as A)”.
`CCC[C@H]1C(=O)N[C@@H]([C@@H](C)CC)C(=O)N(C)[C@@H](C)C(=O)N2CC[C@H]2C(=O)N(CCC)[C@@H](Cc2ccc(C(F)(F)F)cc2)C(=O)N(C)CC(=O)N[C@@H](CCc2ccc(C(F)(F)F)c(Cl)c2)C(=O)N2CC(F)(F)C[C@H]2C(=O)NC2(CCCC2)C(=O)N(C)[C@@H](C2CCCC2)C(=O)N(C)[C@H](C(=O)N2CCOCC2)CC(=O)N1C` [PP0205] ([NMeNva]I[NMeA][Aze][NPrPhe(4-CF3)][Sar][hPhe(3-Cl-4-CF3)][Pro(4,4-F2)][Ac5c][NMeGly(cPent)][NMeD]-Morpholide; lactam N-11): in assay [1] (KD ratio NRAS/KRAS, SPR), the “NRAS/KRAS (ratio of KD for GDP-bound NRAS wild-type to KD for KRAS)” value is “C (A compound having a KD ratio of 0.1 or more and less than 3 is denoted as C)”. The “HRAS/KRAS (ratio of KD for GDP-bound HRAS wild-type to KD for KRAS)” value in assay [2] (KD ratio HRAS/KRAS, SPR) was “C (A compound having a KD ratio of 0.1 or more and less than 3 is denoted as C)”.
For the compound `CCCC[C@H]1C(=O)N[C@@H]([C@@H](C)CC)C(=O)N(C)CC(=O)N(C)[C@H]2C/C=C\CCN(C2=O)[C@@H](Cc2ccc(C(F)(F)F)cc2)C(=O)N(C)CC(=O)N[C@@H](CCc2cc(F)c(C(F)(F)F)c(F)c2)C(=O)N2C[C@@H](C)C[C@H]2C(=O)NC2(CC(C)(C)C2)C(=O)N(C)[C@@H](C2CCCC2)C(=O)N(C)[C@H](C(=O)N(C)C)CC(=O)N1C` [PP1661], the “NRAS/KRAS (ratio of KD value for NRAS to KD value for KRAS)” value in assay [1] (setting [5]) is “A (a compound having 10 or more and less than 20 is denoted as A)”. Moreover, in assay [2] (setting [6]), the “HRAS/KRAS (ratio of KD value for HRAS to KD value for KRAS)” value was “A (a compound having 10 or more and less than 20 is denoted as A)”.
Consider `CCO[C@@H]1C[C@H]2C(=O)NC3(CCC3)C(=O)N(C)[C@@H](C3CCCC3)C(=O)N(C)[C@H](C(=O)N3CCOCC3)CC(=O)N(C)[C@@H](Cc3ccc(F)c(F)c3)C(=O)N[C@@H]([C@@H](C)CC)C(=O)N(C)CC(=O)N(C)[C@H]3CCCCCN(C3=O)[C@@H](Cc3ccc(C(F)(F)F)cc3)C(=O)N(C)CC(=O)N[C@@H](CCc3cc(F)c(C(F)(F)F)c(F)c3)C(=O)N2C1` [PP0928], for which, in assay [1] (setting [5]), the “NRAS/KRAS (ratio of KD value with respect to NRAS to KD value with respect to KRAS)” value is “A (a compound having 10 or more and less than 20 is denoted as A)”. The “HRAS/KRAS (ratio of KD value with respect to HRAS to KD value with respect to KRAS)” value in assay [2] (setting [6]) was “B (a compound having 3 or more and less than 10 is denoted as B)”.
